Read-outs that look alike come from different tables or passages of the source.
How the values were obtained:
CYP450 3A4 = target: T1, CYP450 3A4 (Homo sapiens, UniProt P08684); assay: In vitro inhibition of CYP3A4: testosterone 6β-hydroxylation in human liver microsomes; assay type: biochemical
T1 construct: mediated by CYP450 3A4 in human liver microsomes; from tissue; host or cells: human liver microsomes

Caco-2 monolayers = assay: Bi-directional protease inhibitor transport across Caco-2 monolayers (efflux ratio); assay type: in vitro ADME; details: Caco-2, 100 μM
From the text: (§1) The transport of experimental protease inhibitors was studied in Caco-2 monolayers grown to confluency.

[1] = assay type: in vivo, NZW rabbits
wild-type HIV-1 = details: disclosed in WO 02/092595; cited from earlier work
[2] = system: large panel of viruses resistant to currently known PIs; details: disclosed in WO 02/092595; cited from earlier work
[3] = Bi-directional protease inhibitor transport across Caco-2 monolayers (efflux ratio); assay type: in vitro ADME; details: human, Caco-2, control (no inhibitor), 90 min
From the text: as §1

[4] = Phase I trial: effect of compound A on single dose pharmacokinetics of saquinavir in healthy subjects; details: human, in vivo, 1000 mg
Description: [drawing 12] was used in a Phase I, open-label, randomized trial in healthy subjects to investigate the steady state pharmacokinetics of compound A, and its effect on the single dose pharmacokinetics of the protease inhibitor saquinavir. Three panels of 8 healthy subjects took a single dose of 1000 mg saquinavir alone, and while taking compound A. The pharmacokinetics of the two intakes of saquinavir was compared. On Day 1 in all panels, all subjects received a single dose of 1000 mg saquinavir. From Day 4 to Day 10, one group of healthy volunteers (Panel 1) received 60 mg compound A b.i.d., one group received 160 mg compound A b.i.d. (Panel 2) and one group took 400 mg compound A b.i.d. (Panel 3). On Day 9, all subjects took a single dose of 1000 mg saquinavir simultaneously with compound A. Full pharmacokinetic profiles of compound A were determined on Day 4, Day 8 and Day 9. Full pharmacokinetic profiles of saquinavir were determined on Day 1 and on Day 9.

T1 sequence (P08684 whole entry): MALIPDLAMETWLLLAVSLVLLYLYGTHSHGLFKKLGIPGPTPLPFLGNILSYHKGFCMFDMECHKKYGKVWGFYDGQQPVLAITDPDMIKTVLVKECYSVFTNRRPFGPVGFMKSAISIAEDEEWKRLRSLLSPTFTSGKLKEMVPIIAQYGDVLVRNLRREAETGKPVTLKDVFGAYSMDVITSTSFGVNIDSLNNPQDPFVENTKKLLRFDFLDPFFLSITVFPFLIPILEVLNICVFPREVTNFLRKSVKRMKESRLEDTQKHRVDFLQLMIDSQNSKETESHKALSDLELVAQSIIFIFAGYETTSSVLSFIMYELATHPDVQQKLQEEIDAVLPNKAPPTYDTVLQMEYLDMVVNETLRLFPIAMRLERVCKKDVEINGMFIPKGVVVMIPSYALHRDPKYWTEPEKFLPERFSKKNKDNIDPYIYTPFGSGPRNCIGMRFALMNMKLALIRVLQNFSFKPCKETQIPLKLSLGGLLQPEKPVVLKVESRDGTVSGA

With `CC(C)CN(C[C@@H](O)[C@H](Cc1ccccc1)NC(=O)OCc1cncs1)S(=O)(=O)c1ccc2nc(N)oc2c1` [Compound A, 5-thiazolylmethyl[(1S,2R)-3[[(2-amino-6-benzoxazolyl)sulfonyl]-(2-methylpropyl)amino]-2-hydroxy-1-(phenylmethyl)propyl]carbamate] the IC50 (CYP450 3A4; testosterone 6β-hydroxylation, read-out: IC50 of CYP3A4 mediated metabolism) was 25 to 100 nM, the Ki (CYP450 3A4; testosterone metabolism, non-competitive inhibition model, read-out: inhibition constant Ki of CYP3A4 inhibition) was 65 nM and the “effect on transport polarity of protease inhibitors (Pgp efflux)” value (Caco-2 monolayers) was “significantly reduce the transport polarity”. For the same compound, the “effect on plasma level of darunavir in rabbits” value [1] was “increase”, the “in vitro activity against wild-type HIV-1” value (wild-type HIV-1) was “has in vitro activity” and the “activity against a large panel of viruses resistant to currently known PIs” value [2] was “has also activity”.

With `CC(C)CN(C[C@H](O)[C@@H](Cc1ccccc1)NC(=O)OCc1cncs1)S(=O)(=O)c1ccc2nc(N)oc2c1` [Compound E, 5-thiazolylmethyl[(1R,2S)-3[[(2-amino-6-benzoxazolyl)sulfonyl](2-methylpropyl)amino]-2-hydroxy-1-(phenylmethyl)propyl]carbamate] the “effect on plasma level of darunavir in rabbits” value [1] was “increase”.

In the case of `CC(C)CN(C[C@@H](O)[C@H](Cc1ccccc1)NC(=O)O[C@H]1CO[C@H]2OCC[C@H]21)S(=O)(=O)c1ccc2nc(NCCN3CCCC3)sc2c1` [Compound B], the efflux ratio at 90 min, 30 μM ([3]; compound B 30 μM, read-out: efflux ratio (ER) of compound B) is reported as 171.

With `CC(C)(C)NC(=O)[C@@H]1C[C@@H]2CCCC[C@@H]2CN1C[C@@H](O)[C@H](Cc1ccccc1)NC(=O)[C@H](CC(N)=O)NC(=O)c1ccc2ccccc2n1` [saquinavir] the tmax of saquinavir [4] was 5.0 (2.0-6.0) h, the AUC(0-t) ([4]; AUClast of saquinavir) was 515 ± 306 ng·h/mL and the Cmax ([4]; Cmax of saquinavir) was 117 ± 77.7 ng/mL. It also gave a Tmax ([4]; tmax of saquinavir) of 4.5 h.

For `CCN1CCC[C@@H]1CNc1nc2ccc(S(=O)(=O)N(CC(C)C)C[C@@H](O)[C@H](Cc3ccccc3)NC(=O)O[C@H]3CO[C@H]4OCC[C@H]43)cc2s1` [Compound C], the efflux ratio at 90 min, 30 μM ([3]; compound C 30 μM, read-out: efflux ratio (ER) of compound C) was 119.

From patent US8557854B2, “Use of a sulfonamide compound for improving the pharmacokinetics of a drug” (Janssen R&D Ireland, priority 2005, dated 2013)
